Patent US8101760B2, “Glucocorticoid receptor modulator and methods of use” (Eli Lilly and Company, priority 2007, dated 2012)
Where two headings read alike, the source gives them in different places.

Tested on: carrageenan-induced paw edema
Assay: Carrageenan-induced paw edema (CPE) model
Assay type: in vivo, rat
Settings: for ED50: rat, oral gavage 2 h before carrageenan, 3 h after injection, mean of 5
Source text: Carrageenans are a group of polysaccharides which can induce an acute inflammatory response in animals. Cardinal signs of inflammation including edema, hyperalgesia and erythema are developed in the injection site immediately following injection. The CPE model (Winter et al., Proc. Soc. Exp. Biol. Med. 111, 544-547, 1962) is a recognized model of inflammation and can be used to evaluate the antinflammatory effects of glucocorticoid receptor ligands.
To evaluate the anti-inflammatory effects of Compound (I), the Compound (I) is formulated in a vehicle comprising 0.5% carboxymethyl cellulose and 0.25% Tween 80 then administered orally via gavage to male Sprague-Dawley rats (180-200 g) (Harlan Industries, Indianapolis, Ind.). For comparison, prednisolone is administered orally in the same vehicle. Two hours later, 1% carrageenan in 50 μL of 0.9% pyrogen free saline is injected into the subplantar regions of the right hind paw. Rats are euthanized by CO2 at 3 hours after the carrageenan injection. Paws are removed then weighed using a microbalance. Paws are then immediately immersed into liquid nitrogen until frozen. Frozen paws are dissected by making several cuts on the paw surface then centrifuged to extract the exudates. Exudate levels of IL-1β, a cytokine generated during the inflammatory response, is then measured by ELISA (R&D Systems, Inc., Catalog No. RLB00) using standard techniques. Total paw protein is also measured using a protein assay kit (Pierce Biotechnology, Inc., Rockford, Ill., U.S.A., Catalog No. 1856210) and the absolute level of IL-1β is normalized to yield a concentration value of ng IL-1β/mg total protein.

Q: With `C[C@]12C=CC(=O)C=C1CC[C@@H]1[C@@H]2[C@@H](O)C[C@@]2(C)[C@H]1CC[C@]2(O)C(=O)CO` [prednisolone, reference compound] as the compound, how does the “potency relative to Compound (I) (fold less potent)” value (rat CPE model, similar conditions) read?
A: about 5 fold

Q: What about the ED50 (read-out: ED50, inhibition of carrageenan induced paw weight gain) of the same compound?
A: ~6.6 mg/kg

Q: And the ED50 (read-out: ED50, reduction of paw exudate levels of IL-1β)?
A: < 1 mg/kg
